Measurements taken from PMC11395469, “BpfD Is a c-di-GMP Effector Protein Playing a Key Role for Pellicle Biosynthesis in Shewanella oneidensis” (International Journal of Molecular Sciences, 2024).

Target: T1, BpfD (Shewanella oneidensis, UniProt Q8E9G0)
T1 construct: gene SO_4323; BpfDS, cytoplasmic part (S225 to E639) with degenerated GGDEF and EAL domains, Strep-tagged
T1 sequence (Q8E9G0 225-639): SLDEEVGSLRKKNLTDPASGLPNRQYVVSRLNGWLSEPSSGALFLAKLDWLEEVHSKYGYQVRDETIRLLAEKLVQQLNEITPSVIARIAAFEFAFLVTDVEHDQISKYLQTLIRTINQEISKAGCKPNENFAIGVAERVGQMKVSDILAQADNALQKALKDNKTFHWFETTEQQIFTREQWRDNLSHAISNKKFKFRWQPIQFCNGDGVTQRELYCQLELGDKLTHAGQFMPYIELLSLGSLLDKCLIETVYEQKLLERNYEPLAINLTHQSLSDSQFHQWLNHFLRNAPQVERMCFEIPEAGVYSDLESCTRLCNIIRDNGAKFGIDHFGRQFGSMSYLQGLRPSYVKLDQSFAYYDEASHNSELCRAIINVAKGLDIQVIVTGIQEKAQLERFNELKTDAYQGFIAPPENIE
Assay: isothermal titration calorimetry with purified BpfDS; supported by thermal shift assays
Type: binding

- Kd: 4.38 ± 0.8 µM
Structure (SMILES): Nc1nc2c(ncn2[C@@H]2O[C@@H]3CO[P@](=O)(O)O[C@H]4[C@@H](O)[C@H](n5cnc6c(=O)[nH]c(N)nc65)O[C@@H]4CO[P@](=O)(O)O[C@H]3[C@H]2O)c(=O)[nH]1 [c-di-GMP]
